Experimental data from paper PMC4684212, “Toxoplasma gondii Chitinase Induces Macrophage Activation” (PLoS ONE, 2015).

Tested on: T1, Tg_chitinase
T1 construct: gene TGME49_286465
Assay: colorimetric p-nitrophenol release at […] nm, non-linear regression
Assay type: biochemical, Toxoplasma gondii
Settings: substrate 0.01 to 0.1 mM; general assay 0.1 M sodium acetate buffer, 37°C; pH 4.0 and 50°C are the optima listed beside the Km

Compound `CC(=O)N[C@H]1[C@H](Oc2ccc([N+](=O)[O-])cc2)O[C@H](CO)[C@@H](O)[C@@H]1O` [pNPGlcNAc] has a Km of 340 µM.
